Measured values reported in patent US8148388B2, “2,4 (4,6) pyrimidine derivatives” (Janssen Pharmaceutica, N.V., priority 2004, dated 2012).

Key:
Type in all cases: biochemical
CSK (h) = CSK (h) (Homo sapiens, UniProt P41240); experiment: CSK human kinase assay (glass-fiber filter); details: test concentration of 10^−6M; for inhibition at 1 µM: read-out: C2 score (inhibition of CSK human)
Procedure: (§1) In the glass-fiber filter technology the activity of the kinase of interest is measured using an appropriate substrate that is incubated with the aforementioned kinase protein in the presence of (^33P) radiolabeled ATP. (^33P) Phosphorylation of the substrate is subsequently measured as radioactivity bound on a glass fiber-filter.
(§2) All kinases are pre-diluted to a 10× working concentration prior to addition into the assay. The composition of the dilution buffer for each kinase is detailed below.
(§3) In a final reaction volume of 25 μl, CSK (h) (5-10 mU) is incubated with 50 mM Tris pH 7.5, 0.1 mM EGTA, 0.1 mM Na3VO4, 0.1% β-mercaptoethanol, 0.1 mg/ml poly(Glu, Tyr) 4:1, 10 mM MnCl2, 10 mM MgAcetate and [γ-^33P-ATP] (specific activity approx. 500 cpm/pmol, concentration as required). The reaction is initiated by the addition of the MgATP mix. After incubation for 40 minutes at room temperature, the reaction is stopped by the addition of 5 μl of a 3% phosphoric acid solution. 10 μl of the reaction is then spotted onto a Filtermat A and washed three times for 5 minutes in 75 mM phosphoric acid and once in methanol prior to drying and scintillation counting.

cSRC (h) = cSRC (h) (Homo sapiens, UniProt P12931); experiment: cSRC human kinase assay (glass-fiber filter); details: test concentration of 10^−6M; for inhibition at 1 µM: read-out: C3 score (inhibition of cSRC human)
Method in brief: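 Radiometric assay: kinase and substrate are incubated with [33P]ATP, with the reaction started by MgATP mix. The reaction is spotted on P30 filtermat, washed in 75 mM phosphoric acid and methanol, and the bound 33P is measured by scintillation counting.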

Flt3 (h) = Flt3 (h) (Homo sapiens, UniProt P36888); experiment: Flt3 human kinase assay (glass-fiber filter); details: test concentration of 10^−6M; for inhibition at 1 µM: read-out: C6 score (inhibition of Flt3 human)
Method in brief: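 Human Flt3 (5-10 mU) with 50 μM peptide substrate in 8 mM MOPS pH 7.0, 0.2 mM EDTA, 10 mM Mg acetate and [γ-33P]ATP (concentration as required), 40 min at room temperature. Reaction stopped with phosphoric acid; substrate 33P incorporation counted on P30 glass-fiber filter.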

Fms (h) = Fms (h) (Homo sapiens, UniProt P07333); experiment: Fms human kinase assay (glass-fiber filter); details: test concentration of 10^−6M; for inhibition at 1 µM: read-out: C7 score (inhibition of Fms human)
Method in brief: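 Radiometric filter-binding assay: Fms (5-10 mU) with 250 μM peptide substrate and [γ-33P]ATP in 8 mM MOPS pH 7.0, 10 mM Mg acetate, 40 min at room temperature. Reaction stopped with phosphoric acid; substrate-bound 33P counted on P30 filtermat.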

GSK3B (h) = GSK3B (h) (Homo sapiens, UniProt P49841); experiment: GSK3β human kinase assay (glass-fiber filter); details: test concentration of 10^−6M; for inhibition at 1 µM: read-out: C8 score (inhibition of GSK3β human)
Procedure: The in vitro inhibition of a panel of kinases was assessed using either the glass-fiber filter technology as described by Davies, S. P. et al., Biochem J. (2000), 351; p. 95-105.
as §1, §2
In a final reaction volume of 25 μl, GSK3B (h) (5-10 mU) is incubated with 8 mM MOPS pH 7.0, 0.2 mM EDTA, 20 μM […](p)EDEEE (phospho GS2 peptide), 10 mM MgAcetate and [γ-^33P-ATP] (specific activity approx. 500 cpm/pmol, concentration as required). The reaction is initiated by the addition of the MgATP mix. After incubation for 40 minutes at room temperature, the reaction is stopped by the addition of 5 μl of a 3% phosphoric acid solution. 10 μl of the reaction is then spotted onto a P30 filtermat and washed three times for 5 minutes in 50 mM phosphoric acid and once in methanol prior to drying and scintillation counting.

Lck (h) = Lck (h) (Homo sapiens, UniProt P06239); experiment: Lck human kinase assay (glass-fiber filter); details: test concentration of 10^−6M; for inhibition at 1 µM: read-out: C9 score (inhibition of Lck human)
Method in brief: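 Kinase activity measured as transfer of (^33P) from radiolabeled MgATP to substrate, captured on P30 glass-fiber filtermat, washed in 75 mM phosphoric acid and methanol, then scintillation counted.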

Yes (h) = Yes (h) (Homo sapiens, UniProt P07947); experiment: Yes human kinase assay (glass-fiber filter); details: test concentration of 10^−6M; for inhibition at 1 µM: read-out: C11 score (inhibition of Yes human)
Method in brief: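 Yes (h) (5-10 mU) with 0.1 mg/ml poly(Glu, Tyr) 4:1 in 8 mM MOPS pH 7.0, 0.2 mM EDTA, 10 mM MgAcetate and [γ-^33P-ATP], 40 minutes at room temperature. Stopped with phosphoric acid; substrate-bound ^33P counted on glass-fiber filter by scintillation.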

Abl (h) = Abl (h) (Homo sapiens, UniProt P00519); experiment: Abl human kinase assay (glass-fiber filter); details: test concentration of 10^−6M; for inhibition at 1 µM: read-out: C1 score (inhibition of Abl human)
Fes (h) = Fes (h) (Homo sapiens, UniProt P07332); experiment: Fes human kinase assay (glass-fiber filter); details: test concentration of 10^−6M; for inhibition at 1 µM: read-out: C4 score (inhibition of Fes human)
Procedure: as §1, §2
as §3, with “μl, Fes” for “μl, CSK”, “with 8” for “with 50”, “mM MOPS” for “mM Tris”, “pH 7.0, 0.2” for “pH 7.5, 0.1”, “mM EDTA,” for “mM EGTA, 0.1 mM Na3VO4, 0.1% β-mercaptoethanol,”, “4:1,” for “4:1, 10 mM MnCl2,”

Lyn (h) = Lyn (h) (Homo sapiens, UniProt P07948); experiment: Lyn human kinase assay (glass-fiber filter); details: test concentration of 10^−6M; for inhibition at 1 µM: read-out: C10 score (inhibition of Lyn human)
Method in brief: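 Human Lyn (5-10 mU) phosphorylating poly(Glu,Tyr) 4:1 at 0.1 mg/ml with [γ-33P]ATP (concentration as required) in 50 mM Tris pH 7.5, 10 mM Mg acetate, 40 min at room temperature. Stopped with phosphoric acid; substrate-bound radioactivity counted on glass-fibre filter.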

EGFR (h) = EGFR (h) (Homo sapiens, UniProt P00533); experiment: EGFR human kinase assay (glass-fiber filter); details: test concentration of 10^−6M
Procedure: as §1, §2
In a final reaction volume of 25 μl, EGFR (h) (5-10 mU) is incubated with 8 mM MOPS pH 7.0, 0.2 mM EDTA, 10 mM MnCl2, 0.1 mg/ml poly(Glu, Tyr) 4:1, 10 mM MgAcetate and [γ-^33P-ATP] (specific activity approx. 500 cpm/pmol, concentration as required). The reaction is initiated by the addition of the MgATP mix. After incubation for 40 minutes at room temperature, the reaction is stopped by the addition of 5 μl of a 3% phosphoric acid solution. 10 μl of the reaction is then spotted onto a Filtermat A and washed three times for 5 minutes in 75 mM phosphoric acid and once in methanol prior to drying and scintillation counting.

Chain of Fms (h) (P07333 20-972): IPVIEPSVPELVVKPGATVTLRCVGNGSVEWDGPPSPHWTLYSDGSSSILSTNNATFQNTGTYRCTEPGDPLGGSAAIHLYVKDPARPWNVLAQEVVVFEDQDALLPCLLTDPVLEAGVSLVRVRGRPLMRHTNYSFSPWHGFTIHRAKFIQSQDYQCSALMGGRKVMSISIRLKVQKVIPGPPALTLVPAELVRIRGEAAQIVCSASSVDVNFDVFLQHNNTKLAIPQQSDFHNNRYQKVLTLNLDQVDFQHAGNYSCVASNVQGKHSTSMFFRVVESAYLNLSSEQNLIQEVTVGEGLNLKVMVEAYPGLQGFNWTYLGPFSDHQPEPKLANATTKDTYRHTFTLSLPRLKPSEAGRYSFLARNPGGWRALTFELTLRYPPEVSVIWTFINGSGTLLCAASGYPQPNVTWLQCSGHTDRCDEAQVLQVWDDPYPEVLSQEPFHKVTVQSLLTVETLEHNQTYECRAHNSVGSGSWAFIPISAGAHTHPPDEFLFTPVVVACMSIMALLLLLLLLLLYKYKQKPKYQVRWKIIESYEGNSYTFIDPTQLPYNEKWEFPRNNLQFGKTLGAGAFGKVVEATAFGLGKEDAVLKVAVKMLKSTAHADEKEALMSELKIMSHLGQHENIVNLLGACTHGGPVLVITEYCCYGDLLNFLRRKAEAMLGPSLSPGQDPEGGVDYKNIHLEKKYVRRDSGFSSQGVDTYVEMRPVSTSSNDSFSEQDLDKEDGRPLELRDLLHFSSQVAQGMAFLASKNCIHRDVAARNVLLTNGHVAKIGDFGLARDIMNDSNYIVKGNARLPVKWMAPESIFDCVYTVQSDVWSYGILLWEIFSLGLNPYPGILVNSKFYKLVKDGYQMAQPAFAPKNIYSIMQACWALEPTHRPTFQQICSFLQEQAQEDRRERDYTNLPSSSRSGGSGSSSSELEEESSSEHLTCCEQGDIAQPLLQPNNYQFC
Chain of Lyn (h) (P07948 whole entry): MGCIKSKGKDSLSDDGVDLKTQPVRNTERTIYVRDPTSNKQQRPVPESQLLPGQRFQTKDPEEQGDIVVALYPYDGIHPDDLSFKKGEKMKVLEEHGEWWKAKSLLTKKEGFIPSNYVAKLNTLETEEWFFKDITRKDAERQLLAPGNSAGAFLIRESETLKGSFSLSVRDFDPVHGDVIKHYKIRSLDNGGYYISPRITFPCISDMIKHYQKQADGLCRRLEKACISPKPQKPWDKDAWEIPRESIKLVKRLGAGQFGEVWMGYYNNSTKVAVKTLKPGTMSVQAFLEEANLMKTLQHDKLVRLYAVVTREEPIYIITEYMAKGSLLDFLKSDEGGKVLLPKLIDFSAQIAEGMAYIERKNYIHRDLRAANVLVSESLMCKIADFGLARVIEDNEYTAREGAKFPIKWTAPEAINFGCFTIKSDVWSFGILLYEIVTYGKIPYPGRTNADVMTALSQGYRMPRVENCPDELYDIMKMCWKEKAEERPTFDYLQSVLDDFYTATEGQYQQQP
Chain of Flt3 (h) (P36888 27-993): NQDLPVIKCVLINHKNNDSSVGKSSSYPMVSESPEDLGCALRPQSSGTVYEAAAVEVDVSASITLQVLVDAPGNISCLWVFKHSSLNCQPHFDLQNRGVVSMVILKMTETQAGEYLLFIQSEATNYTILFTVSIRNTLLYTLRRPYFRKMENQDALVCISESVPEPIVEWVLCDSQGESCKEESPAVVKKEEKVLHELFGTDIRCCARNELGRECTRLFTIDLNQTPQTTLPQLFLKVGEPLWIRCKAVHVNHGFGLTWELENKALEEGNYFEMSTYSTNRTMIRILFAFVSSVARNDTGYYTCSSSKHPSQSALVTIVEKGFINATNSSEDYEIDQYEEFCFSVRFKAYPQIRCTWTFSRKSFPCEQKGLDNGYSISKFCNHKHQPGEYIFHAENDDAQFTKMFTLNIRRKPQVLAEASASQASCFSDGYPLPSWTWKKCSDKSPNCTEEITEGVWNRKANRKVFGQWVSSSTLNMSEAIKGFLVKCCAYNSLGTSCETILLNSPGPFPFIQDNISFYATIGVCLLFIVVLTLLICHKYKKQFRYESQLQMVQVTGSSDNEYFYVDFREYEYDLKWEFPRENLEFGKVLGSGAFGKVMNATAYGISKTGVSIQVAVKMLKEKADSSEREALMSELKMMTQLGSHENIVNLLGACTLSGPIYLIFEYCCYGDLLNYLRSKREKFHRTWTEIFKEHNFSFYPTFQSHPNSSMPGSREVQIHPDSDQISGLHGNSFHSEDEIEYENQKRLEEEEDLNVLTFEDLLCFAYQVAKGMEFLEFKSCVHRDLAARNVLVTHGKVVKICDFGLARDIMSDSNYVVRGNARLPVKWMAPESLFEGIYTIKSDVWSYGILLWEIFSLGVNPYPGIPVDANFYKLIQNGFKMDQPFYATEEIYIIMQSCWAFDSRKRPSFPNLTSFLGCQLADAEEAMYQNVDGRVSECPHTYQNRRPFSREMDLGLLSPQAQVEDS
Chain of GSK3B (h) (P49841 whole entry): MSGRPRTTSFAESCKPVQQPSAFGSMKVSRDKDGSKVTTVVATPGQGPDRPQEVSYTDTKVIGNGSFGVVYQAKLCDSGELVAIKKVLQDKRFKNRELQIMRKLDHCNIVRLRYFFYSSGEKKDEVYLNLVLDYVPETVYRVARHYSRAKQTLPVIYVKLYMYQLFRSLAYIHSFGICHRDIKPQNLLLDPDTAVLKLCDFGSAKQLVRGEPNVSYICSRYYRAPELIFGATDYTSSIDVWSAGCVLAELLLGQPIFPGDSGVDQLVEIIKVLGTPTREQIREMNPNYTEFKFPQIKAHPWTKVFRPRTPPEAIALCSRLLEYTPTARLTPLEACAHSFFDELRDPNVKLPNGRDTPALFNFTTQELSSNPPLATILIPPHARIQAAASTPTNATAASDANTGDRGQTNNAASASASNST
Chain of CSK (h) (P41240 whole entry): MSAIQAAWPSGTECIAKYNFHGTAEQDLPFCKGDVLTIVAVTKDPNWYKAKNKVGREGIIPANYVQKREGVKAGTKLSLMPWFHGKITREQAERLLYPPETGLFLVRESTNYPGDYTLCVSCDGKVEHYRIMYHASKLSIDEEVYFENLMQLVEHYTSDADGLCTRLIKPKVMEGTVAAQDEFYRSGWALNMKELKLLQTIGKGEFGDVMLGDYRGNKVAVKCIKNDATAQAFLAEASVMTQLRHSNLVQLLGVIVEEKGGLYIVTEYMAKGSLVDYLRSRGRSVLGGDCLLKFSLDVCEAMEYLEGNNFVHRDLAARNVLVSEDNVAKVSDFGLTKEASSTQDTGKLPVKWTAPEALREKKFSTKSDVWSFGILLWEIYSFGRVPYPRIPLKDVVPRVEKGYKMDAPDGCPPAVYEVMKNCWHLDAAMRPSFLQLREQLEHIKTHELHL
Chain of Abl (h) (P00519 whole entry): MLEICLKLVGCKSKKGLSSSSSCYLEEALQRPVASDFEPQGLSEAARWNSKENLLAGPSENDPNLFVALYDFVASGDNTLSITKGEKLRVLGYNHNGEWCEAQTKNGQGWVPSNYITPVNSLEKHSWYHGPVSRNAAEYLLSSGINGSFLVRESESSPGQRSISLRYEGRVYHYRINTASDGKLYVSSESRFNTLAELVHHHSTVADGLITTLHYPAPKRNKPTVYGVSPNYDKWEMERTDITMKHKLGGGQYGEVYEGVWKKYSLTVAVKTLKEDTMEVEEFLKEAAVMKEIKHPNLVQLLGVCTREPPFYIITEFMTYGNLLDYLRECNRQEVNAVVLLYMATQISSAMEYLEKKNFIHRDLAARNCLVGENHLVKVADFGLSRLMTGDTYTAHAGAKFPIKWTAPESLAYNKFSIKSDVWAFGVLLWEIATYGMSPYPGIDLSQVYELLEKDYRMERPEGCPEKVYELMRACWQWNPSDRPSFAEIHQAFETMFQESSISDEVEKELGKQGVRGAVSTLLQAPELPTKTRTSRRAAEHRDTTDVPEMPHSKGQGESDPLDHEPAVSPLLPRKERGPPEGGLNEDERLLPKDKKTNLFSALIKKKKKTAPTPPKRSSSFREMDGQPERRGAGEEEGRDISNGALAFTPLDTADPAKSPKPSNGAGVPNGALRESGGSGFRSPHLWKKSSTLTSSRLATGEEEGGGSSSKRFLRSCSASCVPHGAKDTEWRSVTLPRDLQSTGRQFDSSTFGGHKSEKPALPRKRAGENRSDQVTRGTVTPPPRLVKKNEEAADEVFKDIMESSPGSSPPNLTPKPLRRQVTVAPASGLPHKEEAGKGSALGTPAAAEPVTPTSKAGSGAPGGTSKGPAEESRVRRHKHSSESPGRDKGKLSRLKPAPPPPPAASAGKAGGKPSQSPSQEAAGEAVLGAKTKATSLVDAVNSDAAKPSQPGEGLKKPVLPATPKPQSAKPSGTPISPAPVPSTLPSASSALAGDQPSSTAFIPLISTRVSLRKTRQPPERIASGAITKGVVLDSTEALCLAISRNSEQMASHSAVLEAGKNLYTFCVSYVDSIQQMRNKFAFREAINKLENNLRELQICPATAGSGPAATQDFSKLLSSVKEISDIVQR
Chain of Lck (h) (P06239 whole entry): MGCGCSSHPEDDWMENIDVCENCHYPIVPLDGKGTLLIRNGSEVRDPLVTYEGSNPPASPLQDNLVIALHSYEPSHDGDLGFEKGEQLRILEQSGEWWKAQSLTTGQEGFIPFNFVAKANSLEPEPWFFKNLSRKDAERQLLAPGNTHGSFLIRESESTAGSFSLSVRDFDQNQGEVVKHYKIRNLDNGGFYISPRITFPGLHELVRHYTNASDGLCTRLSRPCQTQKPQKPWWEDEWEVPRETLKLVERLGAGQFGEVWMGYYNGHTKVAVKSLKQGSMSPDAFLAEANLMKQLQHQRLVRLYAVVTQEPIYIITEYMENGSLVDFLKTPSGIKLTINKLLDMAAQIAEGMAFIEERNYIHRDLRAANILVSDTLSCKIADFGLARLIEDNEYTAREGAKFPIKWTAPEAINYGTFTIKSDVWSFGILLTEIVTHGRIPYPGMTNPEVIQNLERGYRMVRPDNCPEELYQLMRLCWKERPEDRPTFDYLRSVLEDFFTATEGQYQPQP

Row | Compound | inhibition at 1 µM (CSK (h)) | inhibition at 1 µM (cSRC (h)) | inhibition at 1 µM (Flt3 (h)) | inhibition at 1 µM (Fms (h)) | inhibition at 1 µM (Yes (h)) | C2 score (inhibition of CSK human) (CSK (h)) | C3 score (inhibition of cSRC human) (cSRC (h)) | C4 score (inhibition of EGFR human) (EGFR (h)) | C4 score (inhibition of Fes human) (Fes (h)) | C9 score (inhibition of Lck human) (Lck (h)) | C10 score (inhibition of Lyn human) (Lyn (h)) | C11 score (inhibition of Yes human) (Yes (h)) | C8 score (inhibition of GSK3β human) (GSK3B (h)) | other results
1 | O=C1COc2cccc(c2)Nc2cc(ncn2)Nc2cccc(c2)CN2CCN1CC2 [Compound 42, 20-oxa-1,8,10,12,14,23-hexaazapentacyclo[21.2.2.1~3,7~.1~9,13~.1~15,19~]triaconta-3,5,7(30),9,11,13(29),15,17,19(28)-nonaen-22-one] | 30 to 60% | 10 to 30% | 30 to 60% | 30 to 60% | 60 to 80% | – | – | – | – | – | – | – | – | inhibition at 1 µM (GSK3B (h)): 10 to 30%; inhibition at 1 µM (Lck (h)): 30 to 60%
2 | O=C1NCCCCCOc2cccc(c2)Nc2ccnc(n2)Nc2cccc1c2 [Compound 22, 14-oxa-2,4,8,20,28-pentaazatetracyclo[20.3.1.1~3,7~.1~9,13~]octacosa-1(26),3,5,7(28),9,11,13(27),22,24-nonaen-21-one] | 10 to 30% | 10 to 30% | 30 to 60% | 10 to 30% | 10 to 30% | – | – | – | – | – | – | – | – | inhibition at 1 µM (Abl (h)): 10 to 30%; inhibition at 1 µM (Fes (h)): 10 to 30%; inhibition at 1 µM (Lck (h)): 10 to 30%; inhibition at 1 µM (Lyn (h)): 10 to 30%
3 | Cl.Cl.O=C1CNC(=O)Cc2ccc(Cl)cc2Nc2cc(ncn2)Nc2ccc(OCCCN3CCOCC3)c(c2)OCCN1 [Compound 107, 1H,7H-6,2:8,12-dimetheno-13,1,3,5,7,16,19-benzoxahexaazacyclotricosine-17,20(14H)-dione, 24-chloro-15,16,18,19,21-pentahydro-11-[3-(4-morpholinyl)propoxy]-, hydrochloric acid salt (1:2)] | – | – | – | – | – | 3 (Score 3=60-80% inhibition) | 4 (Score 4=>80% inhibition) | 4 (Score 4=>80% inhibition) | 4 (Score 4=>80% inhibition) | 4 (Score 4=>80% inhibition) | 4 (Score 4=>80% inhibition) | 4 (Score 4=>80% inhibition) | – | C1 score (inhibition of Abl human) (Abl (h)): 4 (Score 4=>80% inhibition)
4 | 1H,7H-12,8-metheno-6,2-nitrilo-13,1,5,7,17,20-benzoxapentaazacyclotricosine-3-carbonitrile, 24-chloro-14,15,16,17,18,19,20,21-octahydro-11-methoxy-20-methyl-18-oxo- [Compound 33] | – | – | – | – | – | – | 4 (Score 4=>80% inhibition) | 3 (Score 3=60-80% inhibition) | 2 (Score 2=30-60% inhibition) | 3 (Score 3=60-80% inhibition) | 4 (Score 4=>80% inhibition) | 4 (Score 4=>80% inhibition) | 2 (Score 2=30-60% inhibition) | C1 score (inhibition of Abl human) (Abl (h)): 3 (Score 3=60-80% inhibition); C6 score (inhibition of Flt3 human) (Flt3 (h)): 4 (Score 4=>80% inhibition)
5 | COc1ccc2cc1OCCCCCCCCOc1ccc(Br)cc1Nc1cc(ncn1)N2 [Compound 38, 1H,7H-2,6: 12,8-dimetheno-13,22,1,3,5,7-benzodioxatetraazacyclotetracosine, 25-bromo-14,15,16,17,18,19,20,21-octahydro-11-methoxy-] | – | – | – | – | – | 1 (Score 1=10-30% inhibition) | 1 (Score 1=10-30% inhibition) | 3 (Score 3=60-80% inhibition) | – | – | 1 (Score 1=10-30% inhibition) | 1 (Score 1=10-30% inhibition) | 1 (Score 1=10-30% inhibition) | C7 score (inhibition of Fms human) (Fms (h)): 2 (Score 2=30-60% inhibition)
6 | O=C1CCCCNC(=O)c2cccc(c2)Nc2cc(ncn2)Nc2cccc(c2)CN1 [Compound 58, 2,4,6,8,15,21-hexaazatetracyclo[21.3.1.1~3,7~.1~9,13~]nonacosa-1(27),3,5,7(29),9,11,13(28),23,25-nonaene-14,20-dione] | 60 to 80% | – | 10 to 30% | 30 to 60% | – | – | – | – | – | – | – | – | – | inhibition at 1 µM (Lyn (h)): 10 to 30%
7 | N#Cc1cnc2nc1Nc1cccc(c1)OCCNC(=O)c1cccc(c1)N2 [Compound 20, 14-oxa-2,4,8,17,25-pentaazatetracyclo[17.3.1.1~3,7~.1~9,13~]pentacosa-1(23),3,5,7(25),9,11,13(24),19,21-nonaene-6-carbonitrile, 18-oxo-] | – | 10 to 30% | 30 to 60% | 10 to 30% | 10 to 30% | – | – | – | – | – | – | – | – | inhibition at 1 µM (Abl (h)): 10 to 30%; inhibition at 1 µM (EGFR (h); read-out: C4 score (inhibition of EGFR human)): 10 to 30%; inhibition at 1 µM (Fes (h)): 10 to 30%; inhibition at 1 µM (GSK3B (h)): 60 to 80%
8 | COc1ccc2cc1OCCCCCCCCCOc1ccc(Cl)cc1Nc1cc(ncn1)N2 [Compound 39, 1H,7H-2,6: 12,8-dimetheno-14H-13,23,1,3,5,7-benzodioxatetraazacyclopentacosine, 26-chloro-15,16,17,18,19,20,21,22-octahydro-11-methoxy-] | – | – | – | – | – | 1 (Score 1=10-30% inhibition) | – | – | 1 (Score 1=10-30% inhibition) | 1 (Score 1=10-30% inhibition) | – | – | 1 (Score 1=10-30% inhibition) | C7 score (inhibition of Fms human) (Fms (h)): 1 (Score 1=10-30% inhibition)
